# Structures can show the parent of a compound that is named as a salt.
# System: mice
# Test: Acute Oral LD50 mice (Table I)
# Format: in vivo
# Excerpt: The low toxicity of these compounds makes them especially attractive for use where contact with skin surfaces or possible ingestion renders the use of irritating or toxic materials inadvisable.
# ______________________________________
compound,measurement,value
"Cc1ccc(C(C)(C)C)cc1CCCC(CCCc1cc(C(C)(C)C)ccc1C)NCCCNCCCN [1-[1,7-di-(2-methyl-5-t-butylphenyl)-hydrochloride]",Acute Oral LD50 mice,1650 mg/kg

# — US4260760A, “Diaryl-aliphatic-amino-aliphatic-piperazines” (priority 1979, dated 1981)
